Measured values reported in PubChem BioAssay (NCI).
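Briefly, cells in 96-well plates were exposed to five compound concentrations for 48 h, and endpoints were estimated by linear interpolation. GI50 = concentration required for 50% inhibition of growth. TGI: total growth inhibition.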

Assays:
Assay in all cases: inhibition of tumour cell growth, NCI panel, 48 h
[1] = tested on: T-47D breast
[2] = tested on: A498 renal
[3] = tested on: SNB-19 CNS
[4] = tested on: RPMI-8226 leukemia
[5] = tested on: UO-31 renal
[6] = tested on: NCI/ADR-RES ovarian
[7] = tested on: MALME-3M melanoma
[8] = tested on: HL-60(TB) leukemia
[9] = tested on: SK-OV-3 ovarian
[10] = tested on: MDA-MB-468 breast
[11] = tested on: CCRF-CEM leukemia
[12] = tested on: A549 NSCLC
[13] = tested on: SNB-75 CNS
[14] = tested on: OVCAR-4 ovarian
[15] = tested on: HCT-15 colon
[16] = tested on: SK-MEL-5 melanoma
[17] = tested on: NCI-H460 lung
[18] = tested on: HT29 colon
[19] = tested on: DU-145 prostate
[20] = tested on: ACHN renal
[21] = tested on: HOP-62 NSCLC
[22] = tested on: SR leukemia
[23] = tested on: HS 578T breast
[24] = tested on: SF-295 CNS
[25] = tested on: EKVX NSCLC
[26] = tested on: MDA-MB-231 breast
[27] = tested on: SK-MEL-28 melanoma
[28] = tested on: OVCAR-8 ovarian
[29] = tested on: SK-MEL-2 melanoma
[30] = tested on: MCF7 breast
[31] = tested on: LOX IMVI melanoma
[32] = tested on: NCI-H226 lung
[33] = tested on: PC-3 prostate
[34] = tested on: KM12 colon
[35] = tested on: SW-620 colon
[36] = tested on: IGROV1 ovarian
[37] = tested on: OVCAR-5 ovarian
[38] = tested on: UACC-62 melanoma
[39] = tested on: K-562 leukemia
[40] = tested on: SF-268 CNS
[41] = tested on: M14 melanoma
[42] = tested on: HCT-116 colon
[43] = tested on: OVCAR-3 ovarian
[44] = tested on: SF-539 CNS
[45] = tested on: TK-10 renal
[46] = tested on: NCI-H522 lung
[47] = tested on: BT-549 breast
[48] = tested on: MDA-MB-435
[49] = tested on: HOP-92 NSCLC
[50] = tested on: RXF 393 renal
[51] = tested on: CAKI-1 renal
[52] = tested on: UACC-257 melanoma
[53] = tested on: HCC-2998 colon
[54] = tested on: NCI-H23 lung
[55] = tested on: SN12C renal
[56] = tested on: U251 CNS
[57] = tested on: COLO 205 colon
[58] = tested on: MOLT-4 leukemia
[59] = tested on: 786-0 renal

CSc1nc(-c2cccc(C)c2)c2cc(-c3ccccc3)n(C)c2n1
GI50 [1]: 4.59 µM
TGI [1]: 41.3 µM
GI50 [2]: 27 µM
TGI [2]: 94.9 µM
GI50 [3]: 14.6 µM
TGI [3]: 93.6 µM
GI50 [4]: 4.82 µM
TGI [4]: 37.8 µM
GI50 [5]: 6.78 µM
TGI [5]: 67 µM
GI50 [6]: 3.58 µM
TGI [6]: 30.9 µM
GI50 [7]: 9.16 µM
TGI [7]: 38.2 µM
GI50 [8]: 3.54 µM
TGI [8]: 35.4 µM
GI50 [9]: 11.2 µM
TGI [9]: 52.1 µM
GI50 [10]: 3.08 µM
TGI [10]: 15.6 µM
GI50 [11]: 4 µM
TGI [11]: 36.1 µM
GI50 [12]: 7.01 µM
TGI [12]: > 100 µM
GI50 [13]: 3.17 µM
TGI [13]: 27.4 µM
GI50 [14]: 20.5 µM
TGI [14]: > 100 µM
GI50 [15]: 4.9 µM
TGI [15]: 24.8 µM
GI50 [16]: 3.59 µM
TGI [16]: 12.8 µM
GI50 [17]: 3.98 µM
TGI [17]: 19.1 µM
GI50 [18]: 3.98 µM
TGI [18]: 25.4 µM
GI50 [19]: 18.1 µM
TGI [19]: > 100 µM
GI50 [20]: 12.9 µM
TGI [20]: 75.1 µM
GI50 [21]: 8.77 µM
TGI [21]: 48.9 µM
GI50 [22]: 3.17 µM
TGI [22]: > 100 µM
GI50 [23]: 7 µM
TGI [23]: 78.1 µM
GI50 [24]: 5.06 µM
TGI [24]: 18.2 µM
GI50 [25]: 4.88 µM
TGI [25]: 39.1 µM
GI50 [26]: 7.42 µM
TGI [26]: 30.2 µM
GI50 [27]: 12.2 µM
TGI [27]: 97.7 µM
GI50 [28]: 16.3 µM
TGI [28]: > 100 µM
GI50 [29]: 3.62 µM
TGI [29]: 17.5 µM
GI50 [30]: 5.88 µM
TGI [30]: 41.8 µM
GI50 [31]: 5.44 µM
TGI [31]: 19.4 µM
GI50 [32]: 12.8 µM
TGI [32]: 50 µM
GI50 [33]: 7.9 µM
TGI [33]: > 100 µM
GI50 [34]: 5.41 µM
TGI [34]: 64.7 µM
GI50 [35]: 4.87 µM
TGI [35]: > 100 µM
GI50 [36]: 6.43 µM
TGI [36]: > 100 µM
GI50 [37]: 18.6 µM
TGI [37]: > 100 µM
GI50 [38]: 3.99 µM
TGI [38]: 17.9 µM
GI50 [39]: 3.13 µM
TGI [39]: > 100 µM
GI50 [40]: 11.2 µM
TGI [40]: 51.1 µM
GI50 [41]: 4.56 µM
TGI [41]: 51.4 µM
GI50 [42]: 4.17 µM
TGI [42]: 21.7 µM
GI50 [43]: 4.31 µM
TGI [43]: 30.7 µM
GI50 [44]: 6.35 µM
TGI [44]: 21.8 µM
GI50 [45]: 28.8 µM
TGI [45]: 91.9 µM
GI50 [46]: 3.41 µM
TGI [46]: 17.2 µM
GI50 [47]: 7.11 µM
TGI [47]: 33.5 µM
GI50 [48]: 2.86 µM
TGI [48]: 8.45 µM
GI50 [49]: 3.92 µM
TGI [49]: 30.7 µM
GI50 [50]: 7.91 µM
TGI [50]: 47 µM
GI50 [51]: 5.08 µM
TGI [51]: > 100 µM
GI50 [52]: 16.7 µM
TGI [52]: 50.4 µM
GI50 [53]: 13.9 µM
TGI [53]: 60.8 µM
GI50 [54]: 12.2 µM
TGI [54]: 68 µM
GI50 [55]: 10.7 µM
TGI [55]: 44.7 µM
GI50 [56]: 4.65 µM
TGI [56]: 33.8 µM
GI50 [57]: 7.28 µM
TGI [57]: 26.9 µM
GI50 [58]: 4.47 µM
TGI [58]: 37.7 µM
GI50 [59]: 14.5 µM
TGI [59]: 47.8 µM
